Assay results published in ChEMBL document CHEMBL1148788 (J Med Chem, 2007).

Tests used:
Type in all cases: functional, cell-based
[1] = Antagonist activity at human alpha7nAChR Y93A mutant co-expressed with human Ric3 in tsA201 cells by FMP assay
[2] = Antagonist activity at human alpha7nAChR W149A mutant co-expressed with human Ric3 in tsA201 cells by FMP assay
[3] = Antagonist activity at human alpha7 nAChR W149Y mutant co-expressed with human Ric3 in tsA201 cells by FMP assay
[4] = Antagonist activity at human alpha-7 nAChR Y188A mutant coexpressed with human Ric3 in tsA201 cells by FMP assay
[5] = Antagonist activity at human alpha-7 nAChR Y195A mutant coexpressed with human Ric3 in tsA201 cells by FMP assay

## CC(=O)OCC[N+](C)(C)C [ACETYLCHOLINE]
[1]; read-out: EC50
  EC50: 81 µM
[1]; read-out: pEC50 (converted)
  EC50: 81.3 µM
[2]; read-out: EC50
  EC50: > 30 mM
[2]; read-out: pEC50 (converted)
  EC50: > 31.6 mM
[3]; read-out: EC50
  EC50: 1.5 mM
[3]; read-out: pEC50 (converted)
  EC50: 1.58 mM
[4]; read-out: EC50
  EC50: 3.9 mM
[4]; read-out: pEC50 (converted)
  EC50: 3.89 mM
[5]; read-out: EC50
  EC50: 260 µM
[5]; read-out: pEC50 (converted)
  EC50: 257 µM
